Reference: patent publication US5376658A, “5,10-methylene-tetrahydrofolate as a modulator of a chemotherapeutic agent” (priority 1993, dated 1994)
Blank lines part the entries; values can stand above or below the compound they belong to.

Assays:
[1] = system: CH2 FH4 and FH4 in breast cancer biopsies; assay: CH2 FH4 and FH4 levels in breast cancer biopsies during L-serine infusion after high-dose (6R,S)-leucovorin; type: in vivo, human; design: CH2 FH4 / FH4: unit not given here
Protocol: (§1) As noted previously (see pages 5-6) and mentioned in C. P. Spears, et al., Proc. Am. Soc. Clin. Oncol. 8:69 (1989), the inventors have used pharmacologic intervention to convert intracellular FH4 to CH2 FH4 in patients receiving high-dose reduced folate therapy combined with weekly i.v. bolus 5-FU, 450 mg/sq. m. The method used was administration of i.v. L-serine, 15.0 grams, over 1 hour after the end of overnight high-dose (6R,S)-leucovorin i.v. infusion.
In contrast to the data shown in Tables II and III, the inventors were able to also assay for intratumoral FH4 in addition to CH2 FH4 (this latter is also referred to as "FBC" in those Tables or Folate-Binding Capacity), at time points during this pharmacologic forcing of metabolism of FH4 to CH2 FH4 through the enzyme, serine hydroxymethyltransferase. This enzyme splits a carbon of L-serine to generate formaldehyde in the presence of FH4.
^a Minutes after initiation of 15.0 gram LSerine i.v. 60min infusion,
after end of overnight (6R,S)leucovorin highdose i.v. infusion.
^b Assays performed as described (C.P. Spears et al., Adv. Exp. Med.

breast cancer = assay: Clinical effect in patients receiving 5-FU plus high-dose (6R,S)-leucovorin with L-serine or glycine; type: in vivo, human; details: person; L-serine i.v. added to 5-FU/(6R,S)-leucovorin, subsequently glycine 10 grams i.v.
Protocol: as §1, with “Soc.” left out

gastrointestinal cancers = details: human, in vivo; cited from earlier work
[2] = Dimedone trapping of labile 14CH2O group on dilution; type: physicochemical; details: 46,664 DPM diluted to 1 ml in H2O, 37° C.
From the text: This requirement for a large excess of formaldehyde to shift the equilibrium between FH4 and CH2 FH4 (Eq. 1) was found by the inventors to
be independent of temperature, pH or the formaldehyde content of charcoal isolation, the presence of air exposure, or the presence of reducing agents. In addition, [11-^14 C]CH2 FH4 prepared as described (Moran et al., Proc. Natl. Acad. Sci. USA 76:1456-60 (1979)), and DEAE-purified (as the concentrated material) of excess ^14 CH2 O, was confirmed to have a labile ^14 CH2 O group by dimedone trapping.

TS = TS assay in liver tumors of rats bearing transplanted hepatic colonic carcinoma; type: in vivo, rat; details: 30 mg/kg each; 24 h after last injection; control 18.96
From the text: (§2) The present inventors have considerable experience with this model, and the antitumor effects of 5-FU shown are typical results, as are the TS and folate assays of control and 5-FU-only-treated rats. […] In fact, the "free TS" levels in the (6R,S)-FH4 -only-treated rats were the lowest of all arms of the study.
(§3) ^b Inoculation of 1 × 10^6 viable colon tumor
(§4) (nitrosoguanidineinduced) cells under the liver capsule on Day 1 (Carlsso
(§5) et al., Anticancer Res. 10:813-16 (1990)). Animals sacrificed on Day 17
(§6) for excision of single liver tumor nodules for pharmacodynamic studies.
(§7) ^d Assays done as described (Spears et al. Adv. Exp. Med. Biol.

[3] = system: 5,10-CH2 FH4 and FH4 levels in liver tumor; assay: Folate assay (5,10-CH2 FH4 and FH4) in liver tumors of rats; type: in vivo, rat; details: 30 mg/kg each, 24 h after last injection
From the text: as §2, §3, §4, §5, §6, §7

[4] = cited from earlier work
[5] = system: hepatic colonic carcinoma; assay: Tumor weight in rats bearing transplanted hepatic colonic carcinoma; type: in vivo, rat
From the text: as §2
>94% by HPLC). The (6 R,S)FH 4 was weighed, dissolved in normal
saline, and injected daily by tail vein administration using the airfree
Protector device to prevent oxidative destruction of the folate.
as §3, §4, §5, §6

[6] = patient four, 25 min after initiation of 15.0 g L-serine i.v.
[7] = patient four, 82 min after initiation of 15.0 g L-serine i.v.
[8] = patient two, 22 min after initiation of 15.0 g L-serine i.v.
[9] = patient two, 65 min after initiation of 15.0 g L-serine i.v.
[10] = separate confirmatory experiment, 6 rats/group

Structure (SMILES): N[C@@H](CO)C(=O)O [L-serine]
Ratio of FH4/CH2 FH4 ([1]; patient four, 25 min): 2.9
CH2 FH4 [1, 6]: 0.396
FH4 [1, 6]: 1.128
Ratio of FH4/CH2 FH4 ([1]; patient four, 82 min): 3.0
CH2 FH4 [1, 7]: 0.475
FH4 [1, 7]: 1.420
Ratio of FH4/CH2 FH4 ([1]; patient two, 22 min): 3.4
CH2 FH4 [1, 8]: 0.253
FH4 [1, 8]: 0.854
Ratio of FH4/CH2 FH4 ([1]; patient two, 65 min): 2.7
CH2 FH4 [1, 9]: 0.340
FH4 [1, 9]: 0.907
Clinical effect, third patient (breast cancer): rapid acceleration of objective tumor growth and tumor symptoms

Structure (SMILES): NCC(=O)O [glycine]
Clinical effect, third patient (breast cancer): rapid response to 5-FU therapy

Structure (SMILES): Nc1nc2ncc(CNc3ccc(C(=O)N[C@@H](CCC(=O)O)C(=O)O)cc3)nc2c(=O)[nH]1 [folic acid]
effect of addition to 5-FU therapy (gastrointestinal cancers): increase in toxicity without improved response rates

label recoverable by chloroform extraction of dimedone (methone) product [2]: 67.8%
Structure (SMILES): Nc1nc2c(c(=O)[nH]1)N1[14CH2]N(c3ccc(C(=O)N[C@@H](CCC(=O)O)C(=O)O)cc3)CC1CN2 (stereo partly shown) [[11-^14 C]-CH2 FH4]

Structure (SMILES): Cl.Cl.Nc1nc2c(c(=O)[nH]1)NC(CNc1ccc(C(=O)N[C@@H](CCC(=O)O)C(=O)O)cc1)CN2.O (mixture of isomers) [(6R,S)-FH4, 5,6,7,8Tetrahydropteroyl-L-glutamic acid dihydrochloride monohydrate]
TS (TS): 7.13 p mole/g
5,10-CH2 FH4 ([3]; control 0.69): 2.93 nmol/g
FH4 ([3]; control 1.18): 2.31 nmol/g
stability of powder ([4]; anaerobic conditions, room temperature): stable even at room temperature, for a year or more
stability under anaerobic conditions ([4]; anaerobic conditions): completely stable
degradation of solution ([4]; in […], exposed to air): 90%
Tumor weight ([5]; Day 17 after transplantation, 30 mg/kg each, average of 3 rats, control 5.84): 10.43 g
tumor growth, % of control tumor weight [5, 10]: 171%
tumor size (weight) [5, 10]: 6.0 ± 1.1 g
